Source: patent US9963674B2, “Age-modified cells and methods for making age-modified cells” (Memorial Sloan-Kettering Cancer Center, priority 2013, dated 2018)

How the values were obtained:
Format in all cases: cell-based, human
iPSC-derived fibroblasts = test: Senescence-activated beta-galactosidase staining in iPSC-derived fibroblasts; settings: iPSC-derived fibroblasts overexpressing progerin
Protocol: Senescence-activated beta-galactosidase was assessed using the staining kit from Cell Signaling according to the manufacturer's instructions. Positive cell staining was manually assessed (2 replicates, 50 cells each).

iPSC-derived mDA neurons [1] = test: RNA-seq gene expression analysis of iPSC-derived mDA neurons; settings: progerin vs nuclear-GFP
Protocol: Cells were lysed directly in Trizol (Life Technologies). RNA was extracted using chloroform and ethanol precipitation and further cleaned using the RNeasy kit (Qiagen). Samples were stored at −80° C. until further processing. Total RNA was reverse transcribed (Superscript, Life Technologies) and 50 ng of RNA was used to template each RT-PCR reaction. For analysis of progerin expression levels, total RNA was hydrolyzed by 0.1× volume 5 M NaOH for 30 minutes at room temperature followed by 0.1× volume 5 M HCl (Scaffidi et al., Science 312:1059-1063 (2006)). Quantitative RT-PCR was performed using the Mastercycler RealPlex2 (Eppendorf, Hauppauge, N.Y.) platform following the manufacturer's instructions. Expression levels were normalized to cyclophillin A or 18S (housekeeping gene controls) as noted. For RNA-seq, total RNA was isolated from two independent experiments and processed by the MSKCC Genomic core facility.
Paired-end 75 base pair RNA-sequencing libraries were sequenced on an Illumina HiSeq2000. Reads were mapped to the human genome (Hg19) using STAR 2.3.0e (Dobin et al., Bioinformatics 29:15-21 (2013) with default mapping parameters and read counts were assessed using HTSeq. Principal component analysis was completed in R (v2.15.2) using the base “stats” package. Differentially expressed genes were identified with limma voom (Smyth, Stat Appl Genet Mol Biol 3:Article3 (2004)). A conservative approach was taken to account for low coverage in the sequencing library; a low read count filter was used such that samples contained non-zero read counts for a gene to be assessed in limma. Differentially expressed genes were identified using a fold change cut off of +/−2 and a Bonferroni adjusted p value of 0.05. A hypergeometric test was used to assess the similarity in response to progerin overexpression in young donor and old donor iPSC-derived mDA neurons. […]

iPSC-derived mDA neurons [2] = test: mDA neuron marker expression (NURR1, TH) as sign of acute toxicity
Protocol: Cells were fixed in 4% paraformaldehyde for 15 minutes. Blocking was performed in phosphate-buffered saline supplemented with 1% BSA, and 0.3% Triton X-100 for 30 minutes to 1 hour. Cells were stained overnight at 4° C. with primary antibodies diluted in blocking buffer. Following several washes, cells were stained with appropriate Alexa Fluor-labeled secondary antibodies (Molecular Probes, Carlsbad, Calif.) at 1:500 in blocking buffer for 30 minutes to 3 hours at room temperature. Cells were counterstained with 4′,6-diamidino-2-phenylindole (DAPI; Thermo Fisher, Rockford, Ill.) to visualize nuclei. Images were acquired with an Olympus IX81 microscope using a Hamamatsu ORCA CCD camera.
Cells were collected with a cell lifter (Corning, Tewksbury, Mass.) in ice-cold phosphate-buffered saline without calcium or magnesium (PBS−/−). Cell pellets were rapidly frozen on ethanol and dry ice and stored at −80° C. Cell pellets were thawed on ice and resuspended in 50-200 μl RIPA lysis buffer (50 mM Tris-HCl pH 8.0, 120 mM NaCl, 6 mM EDTA, 0.5% NP-40) with 1% sodium dodecyl sulfate (SDS). Cell suspensions were vortexed at 15-minute intervals during a 45-minute incubation on ice. Lysates were isolated following a 10,000 rpm spin for 10 minutes at 4° C. 20-40 μg samples were further diluted with 4× Laemmli sample buffer, boiled for 5 minutes at 95° C., and loaded onto a NuPAGE 4-12% Bis-Tris precast gel (Life Technologies). Gel electrophoresis was performed at 100 V for 2 hours. Gels were transferred to a methanol activated PVDF membrane using the XCell II Blot Module (Life Technologies) according to the manufacturer's instructions. Blots were blocked in 3% bovine serum albumin (BSA) in Tris buffered saline plus 0.1% Tween-20 (TBS-T) for 45 minutes at room temperature. […]
Following several washes with TBS-T, blots were incubated in appropriate HRP-labeled secondary antibodies (Jackson ImmunoResearch, West Grove, Pa.) for 1 hour at room temperature. […] Densitometry quantification was performed using ImageJ on blots from three independent experiments.

“GFP-progerin: progerin (truncated lamin A) fused to GFP, SEQ ID No. 2, overexpressed via modified-RNA or hSyn lentivirus” was tested, and the SA-β-Gal staining (iPSC-derived fibroblasts) was “increase in senescence-activated β galactosidase (SA-β-Gal) staining”, the BCAS1 expression (iPSC-derived mDA neurons [1]) was “downregulation” and the SIRT4 expression (iPSC-derived mDA neurons [1]) was “downregulation”. The ZNHT3 expression (iPSC-derived mDA neurons [1]) was “upregulation”, the “mDA neuron markers NURR1 and TH” value (iPSC-derived mDA neurons [2]; PD- and control-iPSC-derived mDA neurons, day 65, 5 days) was “unchanged” and the “percentages of iPSC-derived neurons expressing NURR1 and TH” value (iPSC-derived mDA neurons [2]; young and old donor iPSC-derived mDA neurons) was “remained unchanged”.
